Experimental data as given in PMC5477784 (MedChemComm, 2017).

Tests used:
PRMT1 [1] = molecular target: T1, PRMT1 (Homo sapiens, UniProt Q99873); experiment: Mass spectrometric; type: biochemical; settings: inhibitor 0.2 mM; PRMT1 1 μM, SAM 200 μM, H4-20 50 μM, 30°C, 3.5 h
PRMT1 [2] = molecular target: T1, PRMT1; experiment: Radiometric gel assay with [14C]SAM and H4-20, phosphorimaging; type: biochemical; settings: inhibitor 0.2 mM; PRMT1 0.1 μM, [14C]SAM 20 μM, H4-20 100 μM, 30 min, 30°C
[3] = tested on: other PRMTs including PRMT5; settings: cited from earlier work

T1 sequence (Q99873 1-353 isoform Q99873-3, species assumed): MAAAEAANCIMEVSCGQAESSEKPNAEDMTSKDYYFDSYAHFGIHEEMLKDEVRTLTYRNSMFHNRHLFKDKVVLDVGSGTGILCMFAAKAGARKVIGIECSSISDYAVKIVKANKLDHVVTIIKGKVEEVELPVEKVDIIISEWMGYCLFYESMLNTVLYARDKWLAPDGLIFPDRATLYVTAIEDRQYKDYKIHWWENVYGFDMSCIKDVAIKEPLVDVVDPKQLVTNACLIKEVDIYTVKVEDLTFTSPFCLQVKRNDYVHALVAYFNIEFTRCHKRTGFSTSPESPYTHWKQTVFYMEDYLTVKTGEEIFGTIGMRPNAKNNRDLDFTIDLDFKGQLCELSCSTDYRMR

For `N=C(N)c1ccc(-c2ccc(-c3ccc(C(=N)N)cc3)o2)cc1` [Furamidine, furamidine], which “methyl transfer reaction H4-20 to dimethyl H4-20 (mass spectrum)” value (PRMT1 [1]) is on record?
The value was “incomplete inhibition”.

And the “methylation in radiometric gel assay” value (PRMT1 [2])?
The value was “methylation was still observed”.

And the “selectivity over the other PRMTs including PRMT5” value [3]?
The value was > 10 fold.
